# Reference: patent publication US12371454B2, “Cyclic peptide compound having Kras inhibitory action” (priority 2019, dated 2025)
# pIC50: −log10 of the molar value. Positions of bridges follow the written chain, without caps; N, C: chain ends. Non-standard residues stand in square brackets, D forms with d. Residues, ends and D or L forms follow the SMILES beside them. *: point of attachment. hPhe(3-Cl-4-CF3) = N[C@@H](CCc1ccc(C(F)(F)F)c(Cl)c1)C(=O)O; NMePhe(4-CF3) = CN[C@@H](Cc1ccc(C(F)(F)F)cc1)C(=O)O; NMePhe(4-Me) = CN[C@@H](Cc1ccc(C)cc1)C(=O)O; NMePhe(4-F) = CN[C@@H](Cc1ccc(F)cc1)C(=O)O; NMeNva(5,5-F2) = CN[C@@H](CCC(F)F)C(=O)O; NMeGly(cPent) = CN[C@H](C(=O)O)C1CCCC1; NMeCha = CN[C@@H](CC1CCCCC1)C(=O)O; NMeChg = CN[C@H](C(=O)O)C1CCCCC1; NMeF = CN[C@@H](Cc1ccccc1)C(=O)O; NMeI = CC[C@H](C)[C@H](NC)C(=O)O; NMeD = CN[C@@H](CC(=O)O)C(=O)O; dNMeD = CN[C@H](CC(=O)O)C(=O)O; NMeL = CN[C@@H](CC(C)C)C(=O)O; Cba = N[C@@H](CC1CCC1)C(=O)O; NMeV = CN[C@H](C(=O)O)C(C)C; d(β3hA) = C[C@@H](N)CC(=O)O; NMeAbu = CC[C@H](NC)C(=O)O; NMeS = CN[C@@H](CO)C(=O)O; Morpholide = C1CN(*)CCO1; NMeA = CN[C@@H](C)C(=O)O; Piperidide = C1CCN(*)CC1; Pyrrolidide = C1CCN(*)C1; dNMeA = CN[C@H](C)C(=O)O; Ac5c = NC1(C(=O)O)CCCC1; Aze = O=C(O)[C@@H]1CCN1; Abu = CC[C@H](N)C(=O)O; Sar = CNCC(=O)O; Propyl = CCC*
# Target: T1, Kras and SOS1 (biotin-tagged human Kras loaded with GDP, His-tagged human SOS1) (Homo sapiens, UniProt P01116, G12D)
# T1 construct: made in house; host or cells: E. coli (stated for Kras only)
# Test: Protein-protein interaction inhibition between Kras and SOS1 (KrasGl2D-SOS PPI) using AlphaScreen
# Assay type: binding
# Settings: AlphaScreen; biotin-tagged human Kras loaded with GDP, His-tagged human SOS1; read-out: KRAS G12D-SOS PPI IC50
# Summary of the method: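 Binding between SOS1 and Kras is detected as bead-proximity luminescence: illuminate Ni-conjugated donors (680 nm), collect 520-620 nm emission from streptavidin-conjugated acceptors; Kras carries biotin and GDP loaded after purification, SOS1 carries a His tag.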
# T1 sequence (P01116 1-188 isoform P01116-2 G12D): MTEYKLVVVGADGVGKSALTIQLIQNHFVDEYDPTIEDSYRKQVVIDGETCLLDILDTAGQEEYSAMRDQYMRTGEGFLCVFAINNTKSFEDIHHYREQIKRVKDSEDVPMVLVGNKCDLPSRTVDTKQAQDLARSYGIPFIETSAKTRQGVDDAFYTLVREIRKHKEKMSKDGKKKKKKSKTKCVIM
row,SMILES,pIC50
1,CC[C@H](C)[C@@H]1NC(=O)[C@H](CC(C)C)N(C)C(=O)C[C@H](C(=O)N2CCCC2)N(C)C(=O)[C@H]([C@@H](C)CC)N(C)C(=O)C2(CCCC2)NC(=O)[C@@H]2CCCN2C(=O)[C@H](CCc2ccc(C(F)(F)F)c(Cl)c2)NC(=O)CN(C)C(=O)[C@H](Cc2ccc(C(F)(F)F)cc2)N(C)C(=O)[C@@H]2CCN2C(=O)[C@H](C)N(C)C1=O [Compound 1734] ([NMeL]I[NMeA][Aze][NMePhe(4-CF3)][Sar][hPhe(3-Cl-4-CF3)]P[Ac5c][NMeI][dNMeD]-Pyrrolidide; lactam N-11),7.15
2,CCCOC[C@@H]1NC(=O)[C@H](CC(C)C)N(C)C(=O)C[C@@H](C(=O)N2CCCCC2)N(C)C(=O)[C@H](C2CCCCC2)N(C)C(=O)C2(CCCC2)NC(=O)[C@@H]2CCCN2C(=O)[C@H](CCc2ccc(C(F)(F)F)c(Cl)c2)NC(=O)CN(C)C(=O)[C@H](CC2CCCCC2)N(C)C(=O)CN(C)C(=O)CN(C)C1=O [Compound 1736] ([NMeL]S(Propyl)[Sar][Sar][NMeCha][Sar][hPhe(3-Cl-4-CF3)]P[Ac5c][NMeChg][NMeD]-Piperidide; lactam N-11),8.37
3,CC[C@H](C)[C@@H]1NC(=O)[C@H](CC(C)C)N(C)C(=O)C[C@@H](C(=O)N2CCCCC2)N(C)C(=O)[C@H](CC)N(C)C(=O)C2(CCCC2)NC(=O)[C@@H]2CCCN2C(=O)[C@H](CCc2ccc(C(F)(F)F)c(Cl)c2)NC(=O)CN(C)C(=O)[C@H](CC2CCCCC2)N(C)C(=O)CN(C)C(=O)CN(C)C1=O [Compound 1741] ([NMeL]I[Sar][Sar][NMeCha][Sar][hPhe(3-Cl-4-CF3)]P[Ac5c][NMeAbu][NMeD]-Piperidide; lactam N-11),8.42
4,CC[C@H](C)[C@@H]1NC(=O)[C@H](CC(C)C)N(C)C(=O)C[C@@H](C(=O)N2CCCCC2)N(C)C(=O)[C@H](C2CCCCC2)N(C)C(=O)C2(CCCC2)NC(=O)[C@@H]2CCCN2C(=O)[C@H](CCc2ccc(C(F)(F)F)c(Cl)c2)NC(=O)CN(C)C(=O)[C@H](CC)N(C)C(=O)CN(C)C(=O)CN(C)C1=O [Compound 1743] ([NMeL]I[Sar][Sar][NMeAbu][Sar][hPhe(3-Cl-4-CF3)]P[Ac5c][NMeChg][NMeD]-Piperidide; lactam N-11),8.89
5,CC[C@H](C)[C@@H]1NC(=O)[C@H](C)N(C)C(=O)C[C@@H](C(=O)N2CCCCC2)N(C)C(=O)[C@H](C(C)C)N(C)C(=O)C2(CCCC2)NC(=O)[C@@H]2CCCN2C(=O)[C@H](CCc2ccc(C(F)(F)F)c(Cl)c2)NC(=O)CN(C)C(=O)[C@H](Cc2ccccc2)N(C)C(=O)[C@@H]2CCCN2C(=O)CN(C)C1=O [Compound 1753] ([NMeA]I[Sar]P[NMeF][Sar][hPhe(3-Cl-4-CF3)]P[Ac5c][NMeV][NMeD]-Piperidide; lactam N-11),8.60
6,CC(C)C[C@@H]1NC(=O)[C@H](CC(C)C)N(C)C(=O)C[C@@H](C(=O)N2CCCCC2)N(C)C(=O)[C@H](C(C)C)N(C)C(=O)C2(CCCC2)NC(=O)[C@@H]2CCCN2C(=O)[C@H](CCc2ccc(C(F)(F)F)c(Cl)c2)NC(=O)CN(C)C(=O)[C@H](CC2CCCCC2)N(C)C(=O)[C@@H]2CCN2C(=O)[C@H](C)N(C)C1=O [Compound 1754] ([NMeL]L[NMeA][Aze][NMeCha][Sar][hPhe(3-Cl-4-CF3)]P[Ac5c][NMeV][NMeD]-Piperidide; lactam N-11),7.17
7,CC[C@H](C)[C@@H]1NC(=O)[C@H](C)N(C)C(=O)C[C@@H](C(=O)N2CCCCC2)N(C)C(=O)[C@H](C(C)C)N(C)C(=O)C2(CCCC2)NC(=O)[C@@H]2CCCN2C(=O)[C@H](CCc2ccc(C(F)(F)F)c(Cl)c2)NC(=O)[C@@H](C)N(C)C(=O)[C@H](Cc2ccc(F)cc2)N(C)C(=O)CN(C)C(=O)CN(C)C1=O [Compound 1755] ([NMeA]I[Sar][Sar][NMePhe(4-F)][dNMeA][hPhe(3-Cl-4-CF3)]P[Ac5c][NMeV][NMeD]-Piperidide; lactam N-11),8.10
8,CC[C@H](C)[C@@H]1NC(=O)[C@H](CC(C)C)N(C)C(=O)C[C@@H](C(=O)N(C)C)N(C)C(=O)[C@H](C2CCCC2)N(C)C(=O)C2(CCCC2)NC(=O)[C@@H]2CCCN2C(=O)[C@H](CCc2ccc(C(F)(F)F)c(Cl)c2)NC(=O)CN(C)C(=O)[C@H](Cc2ccc(C)cc2)N(C)C(=O)[C@@H]2CCN2C(=O)[C@H](C)N(C)C1=O [Compound 1756] ([NMeL]I[NMeA][Aze][NMePhe(4-Me)][Sar][hPhe(3-Cl-4-CF3)]P[Ac5c][NMeGly(cPent)][NMeD]-NMe2; lactam N-11),9.27
9,CC(C)C[C@H]1C(=O)N[C@@H](CC2CCC2)C(=O)N(C)CC(=O)N(C)CC(=O)N(C)[C@@H](CC2CCCCC2)C(=O)N(C)CC(=O)N[C@@H](CCc2ccc(C(F)(F)F)c(Cl)c2)C(=O)N2CCC[C@H]2C(=O)NC2(CCCC2)C(=O)N(C)[C@@H](C2CCCCC2)C(=O)N(C)[C@H](C(=O)N2CCCCC2)CC(=O)N1C [Compound 1759] ([NMeL][Cba][Sar][Sar][NMeCha][Sar][hPhe(3-Cl-4-CF3)]P[Ac5c][NMeChg][NMeD]-Piperidide; lactam N-11),8.57
10,CC(C)C[C@H]1C(=O)N[C@@H](CO)C(=O)N(C)[C@@H](C)C(=O)N2CC[C@H]2C(=O)N(C)[C@@H](CC2CCCCC2)C(=O)N(C)CC(=O)N[C@@H](CCc2ccc(C(F)(F)F)c(Cl)c2)C(=O)N2CCC[C@H]2C(=O)NC2(CCCC2)C(=O)N(C)[C@@H](C(C)C)C(=O)N(C)[C@H](C(=O)N2CCCCC2)CC(=O)N1C [Compound 1768] ([NMeL]S[NMeA][Aze][NMeCha][Sar][hPhe(3-Cl-4-CF3)]P[Ac5c][NMeV][NMeD]-Piperidide; lactam N-11),6.85
11,CCCOC[C@H]1C(=O)N(C)[C@H](C(=O)N2CCCCC2)CC(=O)N(C)[C@@H](CC(C)C)C(=O)N[C@@H]([C@@H](C)CC)C(=O)N(C)CC(=O)N(C)CC(=O)N(C)[C@@H](CC2CCCCC2)C(=O)N(C)CC(=O)N[C@@H](CCc2ccc(C(F)(F)F)c(Cl)c2)C(=O)N2CCC[C@H]2C(=O)NC2(CCCC2)C(=O)N1C [Compound 1771] ([NMeL]I[Sar][Sar][NMeCha][Sar][hPhe(3-Cl-4-CF3)]P[Ac5c][NMeS](Propyl)[NMeD]-Piperidide; lactam N-11),7.11
12,CC[C@@H]1NC(=O)[C@H](CC(C)C)N(C)C(=O)C[C@@H](C(=O)N2CCCCC2)N(C)C(=O)[C@H](C2CCCCC2)N(C)C(=O)C2(CCCC2)NC(=O)[C@@H]2CCCN2C(=O)[C@H](CCc2ccc(C(F)(F)F)c(Cl)c2)NC(=O)CN(C)C(=O)[C@H](CC2CCCCC2)N(C)C(=O)CN(C)C(=O)CN(C)C1=O [Compound 1775] ([NMeL][Abu][Sar][Sar][NMeCha][Sar][hPhe(3-Cl-4-CF3)]P[Ac5c][NMeChg][NMeD]-Piperidide; lactam N-11),8.40
13,CC[C@H](C)[C@@H]1NC(=O)[C@H](C)N(C)C(=O)C[C@@H](C)NC(=O)[C@H](C(C)C)N(C)C(=O)C2(CCCC2)NC(=O)[C@@H]2CCCN2C(=O)[C@H](CCc2ccc(C(F)(F)F)c(Cl)c2)NC(=O)CN(C)C(=O)[C@H](Cc2ccccc2)N(C)C(=O)[C@@H]2CCCN2C(=O)CN(C)C1=O [Compound 1778] (cyclo([Ac5c][NMeV][d(β3hA)][NMeA]I[Sar]P[NMeF][Sar][hPhe(3-Cl-4-CF3)]P)),8.14
14,CC[C@H](C)[C@@H]1NC(=O)[C@H](CC(C)C)N(C)C(=O)C[C@@H](C(=O)N(C)C)N(C)C(=O)[C@H](C2CCCC2)N(C)C(=O)C2(CCCC2)NC(=O)[C@@H]2CCCN2C(=O)[C@H](CCc2ccc(C(F)(F)F)c(Cl)c2)NC(=O)CN(C)C(=O)[C@H](Cc2ccc(C)cc2)N(C)C(=O)CN(C)C(=O)CN(C)C1=O [Compound 1779] ([NMeL]I[Sar][Sar][NMePhe(4-Me)][Sar][hPhe(3-Cl-4-CF3)]P[Ac5c][NMeGly(cPent)][NMeD]-NMe2; lactam N-11),9.28
15,CC[C@H](C)[C@@H]1NC(=O)[C@H](CC(C)C)N(C)C(=O)C[C@H](C(=O)N2CCCC2)N(C)C(=O)[C@H](C2CCCCC2)N(C)C(=O)C2(CCCC2)NC(=O)[C@@H]2CCCN2C(=O)[C@H](CCc2ccc(C(F)(F)F)c(Cl)c2)NC(=O)CN(C)C(=O)[C@H](CC2CCCCC2)N(C)C(=O)CN(C)C(=O)CN(C)C1=O [Compound 1781] ([NMeL]I[Sar][Sar][NMeCha][Sar][hPhe(3-Cl-4-CF3)]P[Ac5c][NMeChg][dNMeD]-Pyrrolidide; lactam N-11),7.31
16,"CC[C@H](C)[C@@H]1NC(=O)[C@H](CC(C)C)N(C)C(=O)C[C@@H](C(=O)N2CCCCC2)N(C)C(=O)[C@H](CCC(F)F)N(C)C(=O)C2(CCCC2)NC(=O)[C@@H]2CCCN2C(=O)[C@H](CCc2ccc(C(F)(F)F)c(Cl)c2)NC(=O)CN(C)C(=O)[C@H](CC2CCCCC2)N(C)C(=O)CN(C)C(=O)CN(C)C1=O [Compound 1782] ([NMeL]I[Sar][Sar][NMeCha][Sar][hPhe(3-Cl-4-CF3)]P[Ac5c][NMeNva(5,5-F2)][NMeD]-Piperidide; lactam N-11)",8.66
17,CC[C@H](C)[C@@H]1NC(=O)[C@H](C)N(C)C(=O)C[C@@H](C(=O)N2CCOCC2)N(C)C(=O)[C@H](C(C)C)N(C)C(=O)C2(CCCC2)NC(=O)[C@@H]2CCCN2C(=O)[C@H](CCc2ccc(C(F)(F)F)c(Cl)c2)NC(=O)[C@@H](C)N(C)C(=O)[C@H](CC2CCCCC2)N(C)C(=O)[C@@H]2CCCN2C(=O)CN(C)C1=O [Compound 1788] ([NMeA]I[Sar]P[NMeCha][dNMeA][hPhe(3-Cl-4-CF3)]P[Ac5c][NMeV][NMeD]-Morpholide; lactam N-11),8.37
18,CC[C@H](C)[C@@H]1NC(=O)[C@H](CC(C)C)N(C)C(=O)C[C@H](C(=O)N2CCCC2)N(C)C(=O)[C@H](C2CCCC2)N(C)C(=O)C2(CCCC2)NC(=O)[C@@H]2CCCN2C(=O)[C@H](CCc2ccc(C(F)(F)F)c(Cl)c2)NC(=O)CN(C)C(=O)[C@H](CC2CCCCC2)N(C)C(=O)CN(C)C(=O)CN(C)C1=O [Compound 1794] ([NMeL]I[Sar][Sar][NMeCha][Sar][hPhe(3-Cl-4-CF3)]P[Ac5c][NMeGly(cPent)][dNMeD]-Pyrrolidide; lactam N-11),7.40
